Test results published in PMC6222759, “Chemical Constituents from Scindapsus officinalis (Roxb.) Schott. and Their Anti–Inflammatory Activities” (Molecules : A Journal of Synthetic Chemistry and Natural …, 2018).

What was measured:
[1] = tested on: NO production in LPS-induced Raw 264.7 cells; test: Anti-inflammatory activity assay against NO production (Griess) in LPS-stimulated RAW 264.7 macrophages; assay type: cell-based, mouse; conditions: for IC50: Mus musculus, RAW264.7, LPS (1.0 μg/mL)-induced Raw 264.7 cells, 2 h pre-incubation, 24 h stimulation, mean ± SD, n = 3, read-out: IC50 NO (inhibitory effect on NO production); for Anti-inflammatory activity against nitric oxide production (in words): LPS-induced Raw 264.7 cells, compared with positive control dexamethasone
Description: (Raw 264.7 cells were subjected to compounds 3 and 7 with six different concentrations and incubated for 2 h firstly, and then stimulated by adding LPS for 24 h. Then, Griess reagents I and II were added to cell supernatants to detect the NO production levels. The cytotoxicity against macrophage Raw 264.7 cells of compounds 3 and 7 were investigated using the MTT method; NO: Inhibition rates of NO release (%); MTT: Inhibition rates of cell viability (%)).
The anti-inflammatory activity assay against NO production in RAW 264.7 mouse peritoneal macrophages was conducted mainly using the procedures described previously. […] After being stimulated for 24 h, 50 μL of cell supernatants were taken out from each well and mixed with an equal volume of Griess reagents I and II to detect the NO production levels by measuring absorbance at 570 nm. All experiments were performed in triplicate. The NO inhibition is calculated as the percentage reduction of LPS stimulation.

[2] = Cytotoxicity against macrophage Raw 264.7 cells (MTT assay); conditions: mouse
Description: (§1) The cytotoxicity against macrophage Raw 264.7 cells was investigated using the MTT assay. Briefly, after the Raw 264.7 cells were treated with the test compounds for 24 h, 50 μL of MTT (5 mg/mL) was added to each well, and the cells were incubated for an additional 4 h. After the formazan crystals formed, cell supernatants were removed and 100 μL of DMSO was added to dissolve the crystals. Absorbance for each well was analyzed in the same way as that for NO inhibition assay.

[3] = tested on: macrophage Raw 264.7 cells; test: as above; conditions: MTT method; concentration of 20 μM
Description: as §1

| SMILES | IC50 [1] [µM] | inhibition at 24 h, 20 µM ([2]; Raw 264.7 macrophage cells) [%] | inhibition at 24 h, 20 µM [2] [%] | Anti-inflammatory activity against nitric oxide production (in words) [1] | Cell toxicity against macrophage Raw 264.7 cells (in words) [3] |
| --- | --- | --- | --- | --- | --- |
| C=CCc1ccc(OC2O[C@H](CO)[C@@H](O[C@H]3[C@H](O)[C@@H](O)[C@H](OCC4(CC)CC4)O[C@@H]3CO)[C@H](O)[C@H]2O)c(OC)c1 (stereo partly drawn) [Compound 2, 2-Methoxy-4-(prop-2-enyl)-1″-(1-ethylcyclopropyl) methanol phenyl O-β-D-glucopyranosyl-(4→4)-β-D-glucopyranoside] | > 100 | -0.5 | – | – | – |
| CCCCCCOC1O[C@H](CO)[C@@H](O)[C@H](O)[C@H]1O (stereo partly drawn) [Compound 6, hexyl-O-β-D-Glucopyranoside] | > 100 | 1.2 | – | – | – |
| OC[C@H]1O[C@@H](OCCc2ccccc2)[C@H](O)[C@@H](O)[C@@H]1O [Compound 5, 2-phenylethyl β-D-Glucopyranoside] | > 100 | 4.5 | – | – | – |
| O=C(O)/C=C/c1ccc(O)c(O)c1 [Compound 4, caffeic acid] | > 100 | – | 1.1 | – | – |
| C[C@@H]1C[C@H]2[C@@H]3CCC4=CC(=O)C=C[C@]4(C)[C@@]3(F)[C@@H](O)C[C@]2(C)[C@@]1(O)C(=O)CO [Dexamethasone, dexamethasone, reference compound] | 2.2 ± 0.02 | – | – | – | – |
| COC(=O)c1cc(O)c(O)c(O)c1 [Compound 7, methyl gallate] | 18.9 ± 0.3 | – | 2.4 | moderate inhibitory effects | neither showed any cell toxicity |
| COC(=O)/C=C1/C[C@H](O)[C@H](OC(=O)C=Cc2ccc(O)c(O)c2)[C@H]1O [Compound 3, (Z)-(1S,2S,5S)-2,5-Dihydroxy-3-(2-methoxy-2-oxoethylidene)cyclopentyl 3-(3,4-dihydroxyphenyl) acrylate] | 12.2 ± 0.8 | 4.7 | – | moderate inhibitory effects | neither showed any cell toxicity |
| CC(C)=C[C@@H]1CC=C[C@]1(C)OC1O[C@H](CO)[C@@H](O)[C@H](O)[C@H]1O (relative stereo) [Compound 1, (rel)-(1R, 5R)-1-Methyl-5-(2-methylprop-1-en-1-yl)cyclopent-2-en-1-O-β-D-glucopyranoside] | > 100 | 1.8 | – | – | – |
